Experiment [1] relates to C. neoformans H99. The experiment is described as follows: Broth microdilution antifungal assay (MIC) in RPMI or urea medium. Type of experiment: cell-based. Conditions: Cryptococcus neoformans. The protocol:
(§1) C. neoformans H99 (or ATCC 208821), a standard strain, was used to evaluate the antifungal activity of BSU1-BSU11 and BTU1-BTU11 compounds using the broth microdilution method. The assay was performed in two different culture media: the standard medium RPMI 1640 buffered with […] (RMPI), and the Christensen broth (urea medium: 1 g/L peptone, 1 g/L dextrose, 5 g/L sodium chloride, 2 g/L potassium phosphate, 20 g/L urea, 12 mg/L phenol red, pH 7.0). The compounds were dissolved in dimethyl sulfoxide (DMSO) and diluted in both media, obtaining final concentrations from 0.03 to 128 mg/L in a 96-well plate and final DMSO concentration below 0.5%, considered nontoxic. For assay, yeasts were distributed in each well to obtain a final inoculum of 0.5–2.5 × 10^3 CFU/mL, and the plate was incubated at 35 °C for 48 h.
(§2) The MIC values were determined in both media and were defined as the lowest concentrations of BSU1-BSU11 and BTU1-BTU11 that inhibited 50% of fungal growth visually compared with untreated yeasts (growth control). In addition, the urease activity was indicated by medium color change from orange to pink due to ammonia production and the MICure was defined as the lowest concentration that inhibited the urease activity by visual inspection in urea medium with no color changes. For both assays, two controls were included: untreated yeast group for observation of fungal growth pattern or intracellular urease activity, and wells containing only medium for assay sterility control.
(In general: In broth dilution the organism is exposed to a series of concentrations in liquid medium.)

The target in experiment [2] is T1, yeast urease activity (Cryptococcus neoformans, UniProt O13465).
T1 construct: endogenous in cells; host or cells: Cryptococcus neoformans H99 (ATCC 208821) yeasts in Christensen urea broth
T1 sequence (O13465 whole entry): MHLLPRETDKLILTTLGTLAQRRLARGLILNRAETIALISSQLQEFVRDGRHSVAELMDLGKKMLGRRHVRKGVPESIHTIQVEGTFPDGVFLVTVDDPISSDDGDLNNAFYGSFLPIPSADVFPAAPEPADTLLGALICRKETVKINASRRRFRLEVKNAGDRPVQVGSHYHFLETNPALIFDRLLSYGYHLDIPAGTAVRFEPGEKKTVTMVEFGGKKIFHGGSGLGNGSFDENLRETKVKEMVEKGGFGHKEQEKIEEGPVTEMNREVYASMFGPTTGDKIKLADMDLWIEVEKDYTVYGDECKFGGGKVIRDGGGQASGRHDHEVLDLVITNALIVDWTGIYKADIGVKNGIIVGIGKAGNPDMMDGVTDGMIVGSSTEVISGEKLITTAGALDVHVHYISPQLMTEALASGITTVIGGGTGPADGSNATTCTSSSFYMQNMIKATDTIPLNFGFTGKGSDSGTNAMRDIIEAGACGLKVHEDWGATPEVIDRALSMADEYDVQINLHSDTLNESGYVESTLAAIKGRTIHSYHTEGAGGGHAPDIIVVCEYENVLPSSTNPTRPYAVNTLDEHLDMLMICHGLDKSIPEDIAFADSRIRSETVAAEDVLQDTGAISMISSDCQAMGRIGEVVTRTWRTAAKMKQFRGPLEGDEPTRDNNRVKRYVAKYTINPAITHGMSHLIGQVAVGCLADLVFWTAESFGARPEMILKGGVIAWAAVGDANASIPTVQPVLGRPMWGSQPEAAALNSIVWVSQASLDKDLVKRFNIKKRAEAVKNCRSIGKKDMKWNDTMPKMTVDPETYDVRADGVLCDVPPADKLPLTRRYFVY
Put plainly: Inhibition of yeast urease activity in urea (Christensen) medium, colour change (MICure). In kind it is cell-based. As to the method:
The inhibitory activity against yeast urease was assessed using Christensen’s medium, which contains urea to induce URE1 gene expression. […] Even in the presence of fungal growth, inhibition of urease activity was evidenced by the absence of medium color change, indicating suppressed ammonia production.
as §1, §2

The test system of experiment [3] is C. neoformans H99. The experiment is described as follows: Minimum fungicidal concentration by subculturing after MIC reading. In kind it is cell-based. The note with it: Cryptococcus neoformans. The protocol:
After MIC readings, the MFC values were determined by subculturing, at 35 °C for 48 h, of all concentrations that inhibited the fungal growth; and then MFC was defined as the lowest concentration of the compound capable of reducing ≥99% viability of the initial fungal inoculum. ,

The target in experiment [4] is T2, C. neoformans urease (Cryptococcus neoformans, UniProt O13465).
T2 construct: endogenous in cells; host or cells: Cryptococcus neoformans H99, lysed by sonication; dialysed and lyophilised soluble fraction (total protein)
T2 sequence (O13465 whole entry): as above
The experiment is described as follows: Urease activity in crude protein extract, indophenol method. In kind it is biochemical. The note with it: ureIC50, BSU series. As to the method:
C. neoformans H99 yeasts were cultivated in 100 mL of Christensen broth for 72 h at 35 °C by shaking at 200 rpm for the obtention of urease as previously described. Briefly, the yeasts were ruptured using a lysis buffer (40 mM Tris-HCl, 20 mM dithiothreitol, 4% Triton X-100, 1 mM ethylenediaminetetraacetic acid, 2 mM phenylmethylsulfonyl fluoride, protease inhibitor cocktail) and an ultrasonic sonicator. After centrifugation, the soluble fraction was dialyzed in a dialysis membrane submerged in 10 mM sodium phosphate buffer, pH 7.0; the sample was lyophilized and stored at −20 °C. Before the assay, the sample was resuspended in 1 mL of sodium phosphate buffer (10 mM, pH 7.0), and the total protein was quantified by the Bradford method.
The urease activity was determined by the indophenol method. In a 96-well microplate, 10 μL of 100 mM urea was added to 45 μL of total protein and 45 μL of BSU1-BSU11 (concentrations of 0.06–1000 μg/L) in phosphate buffer. The reaction was maintained for 10 min under shaking at 600 rpm, at room temperature. Then, 45 μL of solution A (1% phenol; 0.005% sodium nitroprusside) and 70 μL of solution B (0.5% sodium hydroxide; 0.1% sodium hypochlorite) were immediately added to the wells in the dark and incubated for 5 min at 50 °C under shaking at 600 rpm. Urease activity was quantified by measuring absorbance at 670 nm. The inhibitory concentration capable of inhibiting 50% of urease activity (ureIC50) was determined by nonlinear regression calculation using the GraphPad Prism 5.0 software.

The mark [5] stands for this setting: H99, 48 h, read-out: MIC RPMI, BSU series, 50% inhibition of fungal growth, RPMI medium, 35 °C, 48 h.
The mark [6] stands for this setting: H99, 48 h, read-out: MIC urea, BSU series, 50% inhibition of fungal growth, urea medium, 35 °C, 48 h.
[7] abbreviates: H99, Table S1, RPMI medium, C. neoformans H99.
The mark [8] stands for this setting: H99, Table S1, urea medium, C. neoformans H99.
Setting [9] is: BSU series, 100% inhibition of yeast urease activity in urea medium.
[10] abbreviates: Table S1, urea medium, 100% inhibition of yeast urease activity.
The mark [11] stands for this setting: H99, BSU series, after assay in RPMI medium, ≥99% reduction of viability.
The mark [12] stands for this setting: H99, Table S1, RPMI medium line.
Where [13] appears, read: H99, Table S1, urea medium line.
[14] abbreviates: H99, read-out: MIC RPMI, BTU series, 50% inhibition of fungal growth, RPMI medium.
Where [15] appears, read: H99, read-out: MIC urea, BTU series, 50% inhibition of fungal growth, urea medium.
The mark [16] stands for this setting: BTU series, 100% inhibition of yeast urease activity in urea medium.
[17] abbreviates: H99, BTU series, after assay in RPMI medium.
Where [18] appears, read: H99, BTU series, 50% inhibition of fungal growth, RPMI medium, read-out: MIC RPMI.
The mark [19] stands for this setting: H99, BTU series, 50% inhibition of fungal growth, urea medium, read-out: MIC urea.
Where [20] appears, read: H99, Table S1, RPMI medium, C. neoformans H99, read-out: MIC.
The mark [21] stands for this setting: H99, Table S1, urea medium, C. neoformans H99, read-out: MIC.
[22] abbreviates: H99, BTU series, after assay in RPMI medium, read-out: MFC.
The mark [23] stands for this setting: H99, Table S1, RPMI medium line, read-out: MFC.
Setting [24] is: H99, Table S1, urea medium line, read-out: MFC.

Consider seven molecules from PMC12461339, “Benzoylselenoureas: A Novel Dual-Action Inhibitor Targeting Fungal Growth and Urease Activity in Cryptococcus neoformans” (ACS Omega, 2025).

Each structure is given as a SMILES string. Converted amounts (≈) assume the structure as drawn. “And” between values parts separate entries of the source, which are not always exact repeats. Equal values may be shown once. Read-outs that look alike come from different tables or passages of the source.

The MIC is the least concentration at which growth counts as inhibited. By MFC is commonly meant the smallest concentration meeting the test's criterion for killing the fungus. A word on the IC50: it is the concentration needed to halve the response being measured. Lower therefore signals greater potency. Turning to `Cc1ccc(NC(=[Se])NC(=O)c2ccccc2)cc1` [BSU2], the MIC in experiment [1] (setting [5]) was determined as 16 mg/L (≈ 50.4 µM); in experiment [1] (setting [6]), 0.5 mg/L (≈ 1.58 µM); in experiment [1] (setting [7]), 16 mg/L (≈ 50.4 µM); in experiment [1] (setting [8]), 0.5 mg/L (≈ 1.58 µM). The MICURE in experiment [2] (setting [9]) and in experiment [2] (setting [10]) was 0.5 mg/L throughout. Moreover, the MFC in experiment [3] (setting [11]) was 16 mg/L (≈ 50.4 µM); in experiment [3] (setting [12]) it was 16 mg/L (≈ 50.4 µM); in experiment [3] (setting [13]) it was 1 mg/L (≈ 3.15 µM). The molecule also returned an IC50 in experiment [4] of 1.07 nM.

In the case of `O=C(NC(=[Se])Nc1cccc(Cl)c1)c1ccccc1` [BSU7], the minimum inhibitory concentration (MIC) in experiment [1] (setting [5]) stood at 8 mg/L (≈ 23.7 µM); in experiment [1] (setting [6]), 0.25 mg/L (≈ 0.74 µM); in experiment [1] (setting [7]), 4 mg/L (≈ 11.8 µM); in experiment [1] (setting [8]), 0.12 mg/L (≈ 0.355 µM). The MICURE in experiment [2] (setting [9]) stood at 0.12 mg/L; in experiment [2] (setting [10]), 0.06 mg/L. Moreover, the minimum fungicidal concentration (MFC) is 16 mg/L (≈ 47.4 µM) in experiment [3] (setting [11]), 4 mg/L (≈ 11.8 µM) in experiment [3] (setting [12]) and 0.25 mg/L (≈ 0.74 µM) in experiment [3] (setting [13]). For the same molecule, in experiment [4], the IC50 was 7.59 nM and 7.58 nM.

With `O=C(NC(=S)Nc1cccc([N+](=O)[O-])c1)c1ccccc1` [BTU11], the MIC in experiment [1] (setting [7]), in experiment [1] (setting [8]), in experiment [1] (setting [14]) and in experiment [1] (setting [15]) was over 128 mg/L in each case. Also, the MICURE in experiment [2] (setting [16]) and in experiment [2] (setting [10]) was over 128 mg/L in each case. Also, the MFC in experiment [3] (setting [17]), in experiment [3] (setting [12]) and in experiment [3] (setting [13]) was over 128 mg/L throughout.

As for `O=C(NC(=S)Nc1ccccc1)c1ccccc1` [BTU1], the minimal inhibitory concentration (MIC) is over 128 mg/L in experiment [1] (setting [18]), 32 mg/L (≈ 125 µM) in experiment [1] (setting [19]), over 128 mg/L in experiment [1] (setting [20]) and 32 mg/L (≈ 125 µM) in experiment [1] (setting [21]). Further, the MICURE in experiment [2] (setting [16]) and in experiment [2] (setting [10]) was 32 mg/L throughout. The MFC in experiment [3] (setting [22]) is over 128 mg/L; in experiment [3] (setting [23]), over 128 mg/L; in experiment [3] (setting [24]), 128 mg/L (≈ 499 µM).

Regarding `O=C(NC(=[Se])Nc1ccccc1)c1ccccc1` [BSU1], the minimal inhibitory concentration (MIC) was 2 mg/L (≈ 6.6 µM) in experiment [1] (H99, 48 h, BSU series, 50% inhibition of fungal growth, RPMI medium, 35 °C, 48 h, read-out: MIC RPMI); 0.06 mg/L (≈ 0.198 µM) in experiment [1] (H99, 48 h, BSU series, 50% inhibition of fungal growth, urea medium, 35 °C, 48 h, read-out: MIC urea); 2 mg/L (≈ 6.6 µM) in experiment [1] (setting [20]); 0.06 mg/L (≈ 0.198 µM) in experiment [1] (setting [21]). Also, the MICURE in experiment [2] (setting [9]) and in experiment [2] (setting [10]) was 0.06 mg/L each time. Besides, the MFC in experiment [3] (H99, BSU series, after assay in RPMI medium, ≥99% reduction of viability, read-out: MFC) came to 2 mg/L (≈ 6.6 µM); in experiment [3] (setting [23]) it was 2 mg/L (≈ 6.6 µM); in experiment [3] (setting [24]), 0.12 mg/L (≈ 0.396 µM). In experiment [4], this molecule came in with an IC50 of 4.88 nM.

Take `Cc1ccc(NC(=S)NC(=O)c2ccccc2)cc1` [BTU2]: the MIC in experiment [1] (setting [18]) was over 128 mg/L; in experiment [1] (setting [19]), 32 mg/L (≈ 118 µM); in experiment [1] (setting [20]), over 128 mg/L; in experiment [1] (setting [21]) it was 32 mg/L (≈ 118 µM). Also, the results for the MICURE in experiment [2] (setting [16]) and in experiment [2] (setting [10]) were under 0.25 mg/L and at most 0.25 mg/L, respectively. For the same molecule, the minimum fungicidal concentration (MFC) in experiment [3] (setting [22]), in experiment [3] (setting [23]) and in experiment [3] (setting [24]) was over 128 mg/L throughout.

Consider `O=C(NC(=S)Nc1ccccc1[N+](=O)[O-])c1ccccc1` [BTU10], for which the minimal inhibitory concentration (MIC) in experiment [1] (setting [7]), in experiment [1] (setting [8]), in experiment [1] (setting [14]) and in experiment [1] (setting [15]) was over 128 mg/L each time. The MICURE in experiment [2] (setting [16]) and in experiment [2] (setting [10]) was over 128 mg/L in each case. Further, the MFC in experiment [3] (setting [17]), in experiment [3] (setting [12]) and in experiment [3] (setting [13]) was over 128 mg/L each time.
